Source: article PMC7366380, “Discovery of a Potent and Selective Covalent Inhibitor and Activity-Based Probe for the Deubiquitylating Enzyme UCHL1, with Antifibrotic Activity” (Journal of the American Chemical Society, 2020)
“And” between values parts separate entries of the source, which are not always exact repeats. Equal entries are not always repeated.

Tests used:
[1] = target: T1, Cezanne1 (Homo sapiens, UniProt Q6GQQ9); experiment: Biochemical DUB selectivity profiling assay: Cezanne1; conditions: Ub-Lys-TAMRA 50 nM, buffer B; read-out: Biochemical IC50 range, Cezanne1
T1 sequence (Q6GQQ9 1-843): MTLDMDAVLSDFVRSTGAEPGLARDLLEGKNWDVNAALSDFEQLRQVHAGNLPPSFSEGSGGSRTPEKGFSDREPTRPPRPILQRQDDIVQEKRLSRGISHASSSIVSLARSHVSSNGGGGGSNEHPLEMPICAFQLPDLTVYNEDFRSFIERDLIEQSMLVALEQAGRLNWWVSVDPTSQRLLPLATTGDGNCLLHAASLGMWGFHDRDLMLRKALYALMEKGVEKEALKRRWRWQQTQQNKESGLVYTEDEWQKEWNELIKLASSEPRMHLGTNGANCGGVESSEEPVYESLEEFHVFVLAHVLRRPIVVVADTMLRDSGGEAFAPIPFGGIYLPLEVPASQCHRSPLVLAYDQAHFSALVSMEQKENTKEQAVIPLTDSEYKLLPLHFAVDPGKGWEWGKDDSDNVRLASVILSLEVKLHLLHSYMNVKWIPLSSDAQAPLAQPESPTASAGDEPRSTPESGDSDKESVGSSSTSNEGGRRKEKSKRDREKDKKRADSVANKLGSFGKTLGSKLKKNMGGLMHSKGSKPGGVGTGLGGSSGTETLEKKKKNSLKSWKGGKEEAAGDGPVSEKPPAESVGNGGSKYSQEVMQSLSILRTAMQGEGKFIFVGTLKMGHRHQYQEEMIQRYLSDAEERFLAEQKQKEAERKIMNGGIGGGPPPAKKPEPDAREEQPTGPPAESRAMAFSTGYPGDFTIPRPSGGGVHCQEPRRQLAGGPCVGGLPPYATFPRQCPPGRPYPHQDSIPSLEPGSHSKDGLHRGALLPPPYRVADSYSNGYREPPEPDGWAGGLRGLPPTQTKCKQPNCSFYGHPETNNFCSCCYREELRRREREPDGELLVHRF
Procedure: (§1) DUB Assay Substrate Substrate
(§2) Buffer Concentration (nM) […]
(§3) Sepharose® 4B resin (GE Healthcare).
(§4) 10 kDa molecular weight cut-off (MWCO)).
(§5) Fractions containing protein
(§6) Protein concentration was […]
(§7) reaction volume of 21 μL. […]
(§8) compound (final concentration 5 nM).
(§9) IC50 values were determined
(§10) Biochemical DUB selectivity profiling assays […]
(§11) in 40 µL total reaction volume.

[2] = target: T2, UCHL1 (Homo sapiens, UniProt P09936); experiment: In-cell proteome-wide competitive ABPP (quantitative chemical proteomics), HEK293: UCHL1; conditions: for Log2 reporter intensity values: UCHL1: DMSO substract (FC); for Log2 reporter intensity values: UCHL1 / Log2 reporter intensity values: replicates A-C; for UCHL1 response in proteome-wide competitive ABPP: HEK293, compound 60 min, then 2 (20 nM) 10 min; for Log2 reporter intensity values: UCHL1, DMSO subtracted
T2 sequence (P09936 1-223): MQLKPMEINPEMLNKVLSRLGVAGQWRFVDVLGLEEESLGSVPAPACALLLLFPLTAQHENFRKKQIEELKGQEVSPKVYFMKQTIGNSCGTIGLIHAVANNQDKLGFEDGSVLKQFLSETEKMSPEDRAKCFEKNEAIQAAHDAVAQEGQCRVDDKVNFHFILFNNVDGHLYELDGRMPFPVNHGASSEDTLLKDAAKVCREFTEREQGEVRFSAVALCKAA

[3] = target: T3, USP22 (Homo sapiens, UniProt Q9UPT9); experiment: Biochemical DUB selectivity profiling assay: USP22; conditions: Ub-Rho110 400 nM, buffer B; read-out: Biochemical IC50 range, USP22
T3 sequence (Q9UPT9 1-525): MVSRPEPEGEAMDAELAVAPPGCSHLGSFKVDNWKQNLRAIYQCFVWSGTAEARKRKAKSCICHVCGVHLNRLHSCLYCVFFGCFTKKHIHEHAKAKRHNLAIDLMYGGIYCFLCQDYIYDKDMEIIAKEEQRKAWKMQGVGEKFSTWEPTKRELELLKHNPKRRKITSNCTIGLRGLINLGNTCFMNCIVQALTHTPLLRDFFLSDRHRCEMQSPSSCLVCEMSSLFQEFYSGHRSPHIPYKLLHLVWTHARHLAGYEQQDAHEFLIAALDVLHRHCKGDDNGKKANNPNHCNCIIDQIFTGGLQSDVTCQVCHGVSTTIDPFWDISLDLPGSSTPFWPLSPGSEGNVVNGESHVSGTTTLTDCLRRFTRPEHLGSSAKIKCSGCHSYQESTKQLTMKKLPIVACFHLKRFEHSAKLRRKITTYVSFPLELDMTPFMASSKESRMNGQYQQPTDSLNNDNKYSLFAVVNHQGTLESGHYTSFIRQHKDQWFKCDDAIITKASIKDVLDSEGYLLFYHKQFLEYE
T3 sequence (Q14CW9 1-347 partner): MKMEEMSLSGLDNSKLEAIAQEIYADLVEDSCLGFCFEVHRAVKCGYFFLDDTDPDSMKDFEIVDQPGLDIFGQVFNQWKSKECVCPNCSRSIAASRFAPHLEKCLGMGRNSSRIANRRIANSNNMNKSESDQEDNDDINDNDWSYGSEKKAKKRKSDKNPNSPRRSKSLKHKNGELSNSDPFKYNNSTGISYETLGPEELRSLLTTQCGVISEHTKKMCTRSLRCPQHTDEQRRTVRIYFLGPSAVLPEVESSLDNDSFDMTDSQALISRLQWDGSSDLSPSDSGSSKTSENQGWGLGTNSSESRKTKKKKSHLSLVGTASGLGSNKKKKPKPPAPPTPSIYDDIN
T3 sequence (Q9NPA8 1-101 partner): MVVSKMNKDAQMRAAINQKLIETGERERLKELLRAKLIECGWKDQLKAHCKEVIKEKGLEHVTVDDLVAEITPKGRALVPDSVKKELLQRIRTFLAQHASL
Procedure: as §1, §2, §3, §4, §5, §6, §7, §8, §9, §10, §11

[4] = target: T4, FLAG-UCHL1 (Homo sapiens, UniProt P09936); experiment: HTRF in-cell UCHL1 activity assay with HA-Ub-VME in Cal51 cells; type: cell-based; conditions: Cal51 cells stably expressing FLAG-UCHL1, 1 h, HA-Ub-VME 100 nM
T4 construct: expressed in transfected cells
T4 sequence (P09936 1-223): T2 sequence (P09936 1-223)

[5] = FMT assay, cell number (DAPI nuclei count); conditions: human
[6] = target: T5, OTUB2 (Homo sapiens, UniProt Q96DC9); experiment: biochemical
T5 sequence (Q96DC9 1-234): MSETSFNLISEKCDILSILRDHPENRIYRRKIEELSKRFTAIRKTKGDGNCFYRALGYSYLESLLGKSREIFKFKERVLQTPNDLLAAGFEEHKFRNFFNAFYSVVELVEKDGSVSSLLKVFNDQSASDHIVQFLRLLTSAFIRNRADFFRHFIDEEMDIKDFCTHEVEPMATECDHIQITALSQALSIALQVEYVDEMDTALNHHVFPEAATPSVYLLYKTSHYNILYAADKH

| SMILES | IC50 [1] | Log2 reporter intensity values: UCHL1 ([2]; 1 at 1 μM, competition with ABP 2) | Log2 reporter intensity values: UCHL1 ([2]; 1 at 4 μM, competition with ABP 2) | UCHL1 response in proteome-wide competitive ABPP [2] | Log2 reporter intensity values ([2]; 1_1 μM) | Log2 reporter intensity values ([2]; 1_4 μM) | Log2 reporter intensity values ([2]; 1 at 1 μM) | Log2 reporter intensity values ([2]; 1 at 4 μM) | IC50 [3] | IC50 [4] | EC50 at 3 days [5] | IC50 [6] | Log2 reporter intensity values: UCHL1 ([2]; 20 nM ABP 2 alone) | Log2 reporter intensity values ([2]; 20 nM ABP 2) | Log2 reporter intensity values: UCHL1 ([2]; 3 at 1 μM, competition with ABP 2) | Log2 reporter intensity values: UCHL1 ([2]; 3 at 4 μM, competition with ABP 2) | Log2 reporter intensity values ([2]; 3_1 μM) | Log2 reporter intensity values ([2]; 3_4 μM) | Log2 reporter intensity values ([2]; 3 at 1 μM) | Log2 reporter intensity values ([2]; 3 at 4 μM) |
| --- | --- | --- | --- | --- | --- | --- | --- | --- | --- | --- | --- | --- | --- | --- | --- | --- | --- | --- | --- | --- |
| N#CN1CCC[C@H]1C(=O)N1CCc2c(-c3c[nH]c4ncccc34)cccc21 [Compound 1] | > 10 µM | 1.266 and 1.307 and 1.157 | 0.9345 and 0.8874 and 0.9379 | responds strongly | 0.2661 and 0.3067 and 0.157 | -0.06576 and -0.1128 and -0.06231 | 0.3407 and 0.3862 and 0.2107 | -0.09779 and -0.1723 and -0.09247 | > 10 µM | 0.82 µM | ~11 µM | > 10 µM |  |  |  |  |  |  |  |  |
| C#Cc1cnc2[nH]cc(-c3cccc4c3CCN4C(=O)[C@@H]3CCCN3C#N)c2c1 [Compound 2] | > 10 µM |  |  |  |  |  |  |  | > 10 µM | 0.11 µM | ~11 µM |  | 6.229 and 5.741 and 6.184 | 2.639 and 2.521 and 2.629 and 5.2291 and 4.741 and 5.184 |  |  |  |  |  |  |
| N#CN1CCC[C@@H]1C(=O)N1CCc2c(-c3c[nH]c4ncccc34)cccc21 [Compound 3] | > 10 µM |  |  | does not respond |  |  |  |  | > 10 µM | 23 µM | ~23 µM | > 10 µM |  |  | 5.152 and 5.416 and 5.469 | 5.424 and 5.76 and 5.633 | 4.152 and 4.416 and 4.468 | 4.423 and 4.76 and 4.632 | 2.365 and 2.437 and 2.451 | 2.439 and 2.526 and 2.494 |
| CC(=O)O/N=C1\C(=O)N(Cc2cc(Cl)ccc2Cl)c2ccc(Cl)cc21 [LDN-57444, reference compound] | > 10 µM |  |  |  |  |  |  |  | > 10 µM |  |  | > 10 µM |  |  |  |  |  |  |  |  |
